Key:
[1] = method [a]: LC-MS at pH 2.7, 0.1% formic acid in water / acetonitrile, linear gradient 10% to 95% acetonitrile
Method: Measurement of log P values was performed according EEC directive 79/831 Annex V.A8 by HPLC (High Performance Liquid Chromatography) on reversed phase columns with the following methods:
^[a] measurement of LC-MS was done at pH 2.7 with 0.1% formic acid in water and with acetonitrile (contains 0.1% formic acid) as eluent with a linear gradient from 10% acetonitrile to 95% acetonitrile.

[2] = tested on: Phytophthora infestans; format: in vivo; conditions: tomato plants, preventive spray, 500 ppm of active ingredient, evaluated 7 days after inoculation; 0% = untreated control, 100% = no disease

SMILES	LogP [1]	efficacy [2] [%]
CCCC(=O)C(C#N)=C(NC(C)C1(C)CC1)c1cn(C)nc1C(F)F (racemic) [Compound 121]	3.33^[a]	93
CC(C)C(C)NC(=C(C#N)C(=O)C1CC1C)c1cccnc1Cl (centres unmarked) [Compound 61]	3.80^[a]	–
CNCC(=O)C(C#N)=C(NC(C)C(C)C)c1cn(C)nc1C(F)F (centres unmarked) [Compound 50]	1.60^[a]	–
CCCC(=O)C(C#N)=C(NC(C)CC1CC1)c1cccnc1Cl (racemic) [Compound 118]	3.63^[a]	–
CC(C)C(C)NC(=C(C#N)C(=O)CNC1CC1)c1cn(C)nc1C(F)F (centres unmarked) [Compound 58]	1.78^[a]	–
CCC(=O)C(C#N)=C(NC(C)C1CC1)c1cccnc1Cl (centres unmarked) [Compound 22]	2.88^[a]	–
CC(C)C(C)NC(=C(C#N)C(=O)CCl)c1cn(C)nc1C(F)F (centres unmarked) [Compound 32]	2.86^[a]	–
CCC(C)C(=O)C(C#N)=C(NC(C)C(C)C)c1cccnc1Cl (centres unmarked) [Compound 76]	3.9^[a]	–
CCCC(=O)C(C#N)=C(NC1(CC2CC2)CC1)c1cn(C)nc1C(F)F [Compound 119]	3.44^[a]	93
CC#CC(C)NC(=C(C#N)C(=O)CCC)c1cn(C)nc1C(F)F (racemic) [Compound 125]	2.98^[a]	75
CC(C)C(C)NC(=C(C#N)C(=O)C1CC1)c1cccnc1Cl (centres unmarked) [Compound 71]	3.39^[a]	–
CCCC(=O)C(C#N)=C(NC(C)c1nc(C)c(C)s1)c1cccnc1Cl (racemic) [Compound 105]	3.02^[a]	–
CC(C)C(C)NC(=C(C#N)C(=O)C1CCC1)c1cn(C)nc1C(F)F (centres unmarked) [Compound 34]	3.46^[a]	90
CC(C)OCC(=O)C(C#N)=C(NC(C)C(C)C)c1cccnc1Cl (centres unmarked) [Compound 19]	3.19^[a]	–
CCCC(=O)C(C#N)=C(NC(C)c1nc(C)c(C)s1)c1cn(C)nc1C(F)F (racemic) [Compound 123]	2.92^[a]	–
CC(NC(=C(C#N)C(=O)C1CCC1)c1cn(C)nc1C(F)F)C1CC1 (centres unmarked) [Compound 70]	3.25^[a]	80
CCCC(=O)C(C#N)=C(NC(C)c1ccco1)c1cn(C)nc1C(F)F (racemic) [Compound 132]	3.04^[a]	90
CCCC(=O)C(C#N)=C(NC(C)C1(C)CC1)c1cccnc1Cl (racemic) [Compound 103]	3.57^[a]	95
CCCC(=O)C(C#N)=C(NC1CCC1)c1cn(C)nc1C(F)F [Compound 120]	2.88^[a]	90
CCCC(=O)C(C#N)=C(NC(C)Cc1ccccc1)c1cccnc1Cl (centres unmarked) [Compound 108]	3.83^[a]	–
C=CCCC(=O)C(C#N)=C(NC(C)C(C)C)c1cccnc1Cl (centres unmarked) [Compound 73]	3.7^[a]	80
COCCC(=O)C(C#N)=C(NC(C)C(C)C)c1cn(C)nc1C(F)F (centres unmarked) [Compound 62]	2.64^[a]	75
CCC1CC1NC(=C(C#N)C(=O)CC1CC1)c1cccnc1Cl (centres unmarked) [Compound 72]	3.46^[a]	100
CC(NC(=C(C#N)C(=O)C1CCCC1)c1cccnc1Cl)C1CC1 (centres unmarked) [Compound 14]	3.83^[a]	–
CC(C)C(C)NC(=C(C#N)C(=O)c1ccco1)c1cccnc1Cl (centres unmarked) [Compound 48]	3.11^[a]	–
CCCC(=O)C(C#N)=C(NC(C)c1nccs1)c1cc(C)nn1C(F)F (centres unmarked) [Compound 94]	3.11^[a]	–
COCC(=O)C(C#N)=C(NC(C)C1(Cl)CC1)c1cccnc1Cl (centres unmarked) [Compound 36]	2.44^[a]	70

SMILES	LogP [1]	efficacy [2] [%]
Cc1cc(C(NC(C)C(C)C)=C(C#N)C(=O)CC2CC2)n(C(F)F)n1 (centres unmarked) [Compound 93]	3.87^[a]	–
CC(C)C(C)NC(=C(C#N)C(=O)C1CCCC1)c1cccnc1Cl (centres unmarked) [Compound 7]	4.23^[a]	–
CCCC(=NOC)C(C#N)=C(NC(C)C(C)C)c1cn(C)nc1C(F)F (centres unmarked) [Compound 79]	4.24^[a]	–
CCNCC(=O)C(C#N)=C(NC(C)C(C)C)c1cccnc1Cl (centres unmarked) [Compound 57]	1.68^[a]	–
CC(NC(=C(C#N)C(=O)C1CCC1)c1cccnc1Cl)C1CC1 (centres unmarked) [Compound 12]	3.44^[a]	–
CC(C)C(=O)C(C#N)=C(NC(C)C(C)C)c1cccnc1Cl (centres unmarked) [Compound 9]	3.60^[a]	–
CC(C)C(C)NC(=C(C#N)C(=O)CCCCl)c1cccnc1Cl (centres unmarked) [Compound 74]	3.63^[a]	–
CCCC(=O)C(C#N)=C(NC1(CC2CC2)CC1)c1cccnc1Cl [Compound 101]	3.79^[a]	95
CC(C)C(C)NC(=C(C#N)C(=O)c1ccsn1)c1cccnc1Cl (centres unmarked) [Compound 25]	2.98^[a]	75
COCCC(=O)C(C#N)=C(NC(C)C(C)C)c1cccnc1Cl (centres unmarked) [Compound 65]	2.78^[a]	–
CCCC(=O)C(C#N)=C(NC(C)Cc1ccccc1)c1cn(C)nc1C(F)F (centres unmarked) [Compound 111]	3.55^[a]	–
CCCC(=O)C(C#N)=C(NC(C)c1nccs1)c1cccnc1Cl (centres unmarked) [Compound 26]	2.61^[a]	100
CC(C)C(C)NC(=C(C#N)C(=O)CN1CCCC1)c1cn(C)nc1C(F)F (centres unmarked) [Compound 66]	1.31^[a]	–
CCC(=O)C(C#N)=C(NC1CC1CC)c1cccnc1Cl (centres unmarked) [Compound 68]	3.13^[a]	–
CC(NC(=C(C#N)C(=O)c1ccco1)c1cccnc1Cl)C1CC1 (centres unmarked) [Compound 55]	2.80^[a]	–
CCCCC(=O)C(C#N)=C(NC(C)C(C)C)c1cccnc1Cl (centres unmarked) [Compound 16]	4.06^[a]	95
COCC(=O)C(C#N)=C(NC(C)c1ccccn1)c1cccnc1Cl (centres unmarked) [Compound 1]	1.78^[a]	93
COCC(=O)C(C#N)=C(NC(C)C1CC1)c1cn(C)nc1C(F)F (centres unmarked) [Compound 17]	2.15^[a]	100
CC(C)C(C)NC(=C(C#N)C(=O)CCl)c1cccnc1Cl (centres unmarked) [Compound 45]	3.02^[a]	–
CCCC(=O)C(C#N)=C(NC(C)CC(C)C)c1cn(C)nc1C(F)F (racemic) [Compound 127]	3.63^[a]	–
CC(C)C(C)NC(=C(C#N)C(=O)C1CCCCC1)c1cccnc1Cl (centres unmarked) [Compound 53]	4.50^[a]	–
CCCC(=O)C(C#N)=C(NC(C)c1ccco1)c1cccnc1Cl (racemic) [Compound 99]	3.31^[a]	–
Cc1cc(C(NC(C)c2nccs2)=C(C#N)C(=O)CC2CC2)n(C(F)F)n1 (centres unmarked) [Compound 97]	3.09^[a]	–
CNCC(=O)C(C#N)=C(NC(C)C(C)C)c1cccnc1Cl (centres unmarked) [Compound 15]	1.50^[a]	–
COCC(C)NC(=C(C#N)C(=O)CC1CC1)c1cc(C)nn1C(F)F (centres unmarked) [Compound 96]	3.11^[a]	–
CC(NC(=C(C#N)C(=O)C1CCCC1)c1cn(C)nc1C(F)F)C1CC1 (centres unmarked) [Compound 21]	3.58^[a]	–
CC(NC(=C(C#N)C(=O)CC1CC1)c1cccnc1Cl)C1CC1 (centres unmarked) [Compound 54]	3.31^[a]	–

SMILES	LogP [1]	efficacy [2] [%]
CSCC(=O)C(C#N)=C(NC(C)C(C)C)c1cccnc1Cl (centres unmarked) [Compound 46]	3.13^[a]	–
CC(NC(=C(C#N)C(=O)Cc1ccccc1)c1cccnc1Cl)C1CC1 (centres unmarked) [Compound 8]	3.23^[a]	–
COC(C)C(=O)C(C#N)=C(NC(C)C(C)C)c1cccnc1Cl (centres unmarked) [Compound 67]	2.70^[a]	–
CC(C)C(C)NC(=C(C#N)C(=O)C1(Cl)CC1)c1cccnc1Cl (centres unmarked) [Compound 3]	3.44^[a]	–
CCC(F)(F)C(=O)C(C#N)=C(NC(C)C(C)C)c1cccnc1Cl (centres unmarked) [Compound 37]	3.55^[a]	–
CCCC(=O)C(C#N)=C(NC(C)C(=O)NC)c1cn(C)nc1C(F)F (centres unmarked) [Compound 109]	1.79^[a]	–
CCCC(=O)C(C#N)=C(NC(C)COC)c1cc(C)nn1C(F)F (centres unmarked) [Compound 95]	3.13^[a]	–
COCC(=O)C(C#N)=C(NC(C)c1nccs1)c1cccnc1Cl (centres unmarked) [Compound 77]	–	93
COCC(=O)C(C#N)=C(NC(C)c1nccs1)c1cn(C)nc1C(F)F (centres unmarked) [Compound 82]	1.76^[a]	–
CCCC(=O)C(C#N)=C(NC(C)C1CC1)c1cccnc1Cl (centres unmarked) [Compound 43]	3.25^[a]	–
COCC(=O)C(C#N)=C(NC(C)C(C)C)c1cccnc1Cl (centres unmarked) [Compound 41]	2.48^[a]	–
CCCC(=O)C(C#N)=C(NC(C)CC(C)C)c1cccnc1Cl (racemic) [Compound 115]	3.99^[a]	–
CCC(=O)C(C#N)=C(NC(C)C1CC1)c1cn(C)nc1C(F)F (centres unmarked) [Compound 69]	2.73^[a]	–
CC(NC(=C(C#N)C(=O)C1CC1)c1cccnc1Cl)C1CC1 (centres unmarked) [Compound 42]	3.06^[a]	–
CCCC(=O)C(C#N)=C(NC1CC1CC)c1cccnc1Cl (centres unmarked) [Compound 31]	3.51^[a]	–
CC(C)C(C)NC(=C(C#N)C(=O)CN(C)C)c1cccnc1Cl (centres unmarked) [Compound 13]	1.39^[a]	–
CC(C)C(C)NC(=C(C#N)C(=O)C1CCCC1)c1cn(C)nc1C(F)F (centres unmarked) [Compound 78]	3.81^[a]	–
CCCC(=O)C(C#N)=C(NC(C)C(C)C)c1cc(C)nn1C(F)F (centres unmarked) [Compound 92]	3.92^[a]	–
COCC(=O)C(C#N)=C(NC(C)C1CC1)c1cccnc1Cl (centres unmarked) [Compound 49]	2.23^[a]	–
CC(C)C(C)NC(=C(C#N)C(=O)CNC1CC1)c1cccnc1Cl (centres unmarked) [Compound 39]	1.74^[a]	–
CC(C)C(C)NC(=C(C#N)C(=O)CN1CCCC1)c1cccnc1Cl (centres unmarked) [Compound 35]	1.52^[a]	–
CC(C)C(C)NC(=C(C#N)C(=O)Cc1ccccc1)c1cccnc1Cl (centres unmarked) [Compound 29]	3.85^[a]	–
CCNCC(=O)C(C#N)=C(NC(C)C(C)C)c1cn(C)nc1C(F)F (centres unmarked) [Compound 60]	1.63^[a]	–
CCCC(=O)C(C#N)=C(NC(C)CCc1ccccc1)c1cn(C)nc1C(F)F (racemic) [Compound 128]	3.83^[a]	–
CC(C)C(C)NC(=C(C#N)C(=O)C1CCCCO1)c1cccnc1Cl (centres unmarked) [Compound 6]	3.00^[a]	–
CCCCC(=O)C(C#N)=C(NC1CC1CC)c1cccnc1Cl (centres unmarked) [Compound 38]	3.94^[a]	–

— patent US9474275B2, “Cyanoenamines and their use as fungicides” (priority 2010, dated 2016)
